# From patent EP0086092A2, “Antifungal compositions” (priority 1982, dated 1983)
# “And” between values parts separate entries of the source, which are not always exact repeats. Equal values may be shown once. Marks after values point to notes of the source that are not given here.
# Tested on: Candida albicans B 311
# Assay: disc diffusion, zone of inhibition on seeded agar plates
# Type: cell-based
# Conditions: for Zone Size: Table I, glucose as carbon source, composition of 1 unit by weight aculeacin A + 5 units fatty acid; for Zone Size / Zone Size YNB agar: YNB agar; for Zone Size / Zone Size B 311 / Zone Size Sabouarud Agar / Zone Size YNB agar: 16-18 h; for Zone Size / Zone Size B 311: 28-37°C; for Zone Size Sabouarud Agar / Zone Size YNB agar: Table II, 37°C; for Zone Size Sabouarud Agar: Sabouarud dextrose agar; for Zone Size YNB agar: lysine; for increase in the intrinsic activity of aculeacin A: Table II test
# Method: The antifungal activity of aculeacin A and the compositions of aculeacin A and fatty acids was measured by disc diffusion.
# The effects of a number of fatty acids on the antifungal activity of aculeacin A were determined by utilizing seeded plates of Candida albicans B 311 in yeast nitrogen base (YNB) agar (Difco) with glucose as the carbon source. A composition containing one unit by weight of aculeacin A and 5 units of fatty acid or the sodium salt thereof was spotted on the seeded plates and the size of the zone of inhibition after 16-18 hours incubation at 28-37 °C was measured.
# Additional fatty acids were tested to determine , if they increased the intrinsic activity of aculeacin A against C. albicans B 311 utilizing seeded plates of YNB agar (Difco) with lysine as the carbon source and seeded plates of Sabouarud dextrose agar (Difco). Compositions containg one µg of aculeacin A and various amounts of the fatty acid was spotted on the seeded plates and the size of the zone of inhibition after 16-18 hours incubation at 37 °C was measured.
# The antifungal effects of compositions containing a single amount of oleic acid as the sodium salt while varying the amounts of aculeacin A were determined by utilizing seeded plates of Candida albicans B 311 in Sabouarud dextrose agar and measuring the zone of inhibition after 16-18 hours incubation at 28-37°C.
# The antifungal effects of compositions containing a single amount of aculeacin A while varying the amounts. of oleic acid as the sodium salt were determined by utilizing seeded plates of Candida albicans strains B 311, BC 759 and B 3153A and measuring the zone of inhibition after 16-18 hours at 28-37°C. This test was also performed with linoleic acid and linolenic acid.
# The seeded plates of Candida albicans strains B 311, BC 759, and B 3153A were prepared by inoculating 50 ml of trypticase soy broth (BBL) with one ml of the preserved frozen culture and incubating the inoculum at 37°C for 7 hours on a rotary shaker. Two milliliters of this culture were used to inoculate one liter of Sabouarud dextrose agar (Difco) at 50°C and 15 milliliters of the resultant medium poured into 150 mm petri-dishes.
# [1] = Tables IV-b, IV-c, aculeacin A 0 µg, fatty acid 28.1 µg alone
# [2] = Tables IV-b, IV-c, aculeacin A 0 µg, fatty acid 56.2 µg alone
# [3] = Tables IV-b, IV-c, aculeacin A 0 µg, fatty acid 112.5 µg alone
# [4] = Tables IV-b, IV-c, aculeacin A 0.625 µg + fatty acid 28.1 µg
# [5] = Tables IV-b, IV-c, aculeacin A 0.625 µg + fatty acid 56.2 µg
# [6] = Tables IV-b, IV-c, aculeacin A 0.625 µg + fatty acid 112.5 µg
# [7] = aculeacin A 0 µg, fatty acid 250 µg alone
# [8] = aculeacin A 0 µg, fatty acid 500 µg alone
# [9] = aculeacin A 0 µg, fatty acid 1000 µg alone
# [10] = composition of aculeacin A 1 µg + fatty acid 250 µg
# [11] = composition of aculeacin A 1 µg + fatty acid 500 µg
# [12] = composition of aculeacin A 1 µg + fatty acid 1000 µg
# [13] = aculeacin A 0 µg, fatty acid 50 µg alone
# [14] = aculeacin A 0 µg, fatty acid 100 µg alone
# [15] = aculeacin A 0 µg, fatty acid 200 µg alone
# [16] = composition of aculeacin A 1 µg + fatty acid 50 µg
# [17] = composition of aculeacin A 1 µg + fatty acid 100 µg
# [18] = composition of aculeacin A 1 µg + fatty acid 200 µg
# [19] = aculeacin A 0 µg, fatty acid 2000 µg alone
# [20] = composition of aculeacin A 1 µg + fatty acid 2000 µg
Compound,Zone Size,Zone Size Sabouarud Agar [8],Zone Size Sabouarud Agar [9],Zone Size Sabouarud Agar [11],Zone Size Sabouarud Agar [12],Zone Size YNB agar [8],Zone Size YNB agar [9],Zone Size YNB agar [11],Zone Size YNB agar [12],also measured
CCCCCCCC(=O)O [Caprylic Acid],16 mm,–,–,–,–,–,–,–,–,–
CC/C=C\C/C=C\C/C=C\CCCCCCCC(=O)O [Linolenic Acid],22 mm,–,–,–,–,–,–,–,–,Zone Size B 311 [1]: 0 mm; Zone Size B 311 [2]: 0 mm; Zone Size B 311 [3]: 0 mm; Zone Size B 311 [4]: 20 mm; Zone Size B 311 [5]: 19 mm; Zone Size B 311 [6]: 19 mm
CCCCC/C=C/C/C=C/CCCCCCCC(=O)O [Linoelaidic Acid],–,0 mm,0 mm,20* mm,24* mm,0 mm,0 mm,17 mm,16 mm,Zone Size Sabouarud Agar [7]: 0 mm; Zone Size Sabouarud Agar [10]: 20* mm; Zone Size YNB agar [7]: 0 mm; Zone Size YNB agar [10]: 26 mm; increase in the intrinsic activity of aculeacin A (composition of 250 units by weight fatty acid to one unit aculeacin A): surprising increase in the intrinsic activity of aculeacin A
CCCCCC/C=C\CCCCCCCC(=O)O [Palmitoleic Acid],26 mm,–,–,–,–,–,–,–,–,–
CCCCCCCCCCC(O)C(=O)O (stereo not drawn) [α-Hydroxy Lauric Acid],–,10 (hazy) mm,10 (hazy) mm,15 mm,20 mm,Trace,Trace,24 mm,25 mm,Zone Size Sabouarud Agar [7]: Trace; Zone Size Sabouarud Agar [10]: 15 mm; Zone Size YNB agar [7]: Trace; Zone Size YNB agar [10]: 20 mm
Homo-γ-Linoleic Acid,–,–,–,–,–,–,–,–,–,Zone Size Sabouarud Agar [13]: 0 mm; Zone Size Sabouarud Agar [14]: 0 mm; Zone Size Sabouarud Agar [15]: 0 mm; Zone Size Sabouarud Agar [16]: 15 mm; Zone Size Sabouarud Agar [17]: 15 mm; Zone Size Sabouarud Agar [18]: 15 mm; Zone Size YNB agar [13]: 0 mm; Zone Size YNB agar [14]: 0 mm; Zone Size YNB agar [15]: 0 mm; Zone Size YNB agar [16]: 15* mm; Zone Size YNB agar [17]: 15* mm; Zone Size YNB agar [18]: 17* mm
CCCCCC/C=C/CCCCCCCC(=O)O [Palmitelaidic Acid],–,0 mm,0 mm,30 mm,32 mm,0 mm,0 mm,20 mm,20 mm,Zone Size Sabouarud Agar [19]: 0 mm; Zone Size Sabouarud Agar [20]: 25 mm; Zone Size YNB agar [19]: 0 mm; Zone Size YNB agar [20]: 22 mm
CCCCCCCCCC(=O)O [Decanoic Acid],17 mm,–,–,–,–,–,–,–,–,–
CCCCCCCCCCCCCCCCCCCCCC(=O)O [Behenic Acid],–,0 mm,0 mm,14 mm,20 mm,0 mm,0 mm,14 mm,15 mm,Zone Size Sabouarud Agar [7]: 0 mm; Zone Size Sabouarud Agar [10]: 15 mm; Zone Size YNB agar [7]: 0 mm; Zone Size YNB agar [10]: 14 mm
CCCCCCCCCCCCCCCC(=O)O [Palmitic Acid],15 mm,–,–,–,–,–,–,–,–,–
CCCCCCCCCCCCCC(=O)O [Myristic Acid],16 mm,–,–,–,–,–,–,–,–,–
CCCCCCCC/C=C\CCCCCCCCCCCC(=O)O [Erucic Acid],–,0 mm,0 mm,17 mm,Trace,0 mm,0 mm,15 mm and 17 mm,15 mm,Zone Size Sabouarud Agar [7]: 0 mm; Zone Size YNB agar [7]: 0 mm
CCCCCCCCCCCCCCCCCC(=O)O [Stearic Acid],15 mm,–,–,–,–,–,–,–,–,–
CCCCCC/C=C/CCCCCCCCCC(=O)O [Vaccinic Acid],–,0 mm,0 mm,25 mm,25 mm,0 mm,0 mm,17 mm,17 mm,Zone Size Sabouarud Agar [19]: 0 mm; Zone Size Sabouarud Agar [20]: 26 mm; Zone Size YNB agar [19]: 0 mm; Zone Size YNB agar [20]: 17 mm
CCCCC/C=C\C/C=C\C/C=C\C/C=C\CCCC(=O)O [Arachidonic Acid],–,0 mm,0 mm,20* mm,20* mm,0 mm,0 mm,20 mm,26 mm,Zone Size Sabouarud Agar [7]: 0 mm; Zone Size Sabouarud Agar [10]: 20* mm; Zone Size YNB agar [7]: 0 mm; Zone Size YNB agar [10]: 20 mm
γ-Linoleic Acid,–,0 mm,0 mm,20 mm,24 mm,0 mm,0 mm,14 mm,15 mm,Zone Size Sabouarud Agar [19]: 0 mm; Zone Size Sabouarud Agar [20]: 25 mm; Zone Size YNB agar [19]: 0 mm; Zone Size YNB agar [20]: 22 mm; increase in the intrinsic activity of aculeacin A (composition of 2000 units by weight fatty acid to one unit aculeacin A): surprising increase in the intrinsic activity of aculeacin A
CCCCC/C=C\C/C=C\CCCCCCCC(=O)O [Linoleic Acid],23 mm,–,–,–,–,–,–,–,–,"Zone Size B 311 (Table IV-b, aculeacin A 0 µg, fatty acid 225 µg alone): Trace; Zone Size B 311 (Table IV-b, aculeacin A 0.625 µg + fatty acid 225 µg): 19 mm; Zone Size B 311 [1]: 0 mm; Zone Size B 311 [2]: 0 mm; Zone Size B 311 [3]: 0 mm; Zone Size B 311 [4]: 22 mm; Zone Size B 311 [5]: 22 mm; Zone Size B 311 [6]: 21 mm"
